System: MV-4-11 cells
Assay: Gene expression microarray analysis (Affymetrix PrimeView) and GSEA
Type: cell-based, human
Parameters: RFU PODN (11730768_x_at) / Fold change /veh PODN (11730768_x_at) / RFU LINC00158 (11744669_a_at) / Fold change /veh LINC00158 (11744669_a_at) / RFU DUSP10 (11751237_a_at) / Fold change /veh DUSP10 (11751237_a_at) / RFU ID3 (11757404_x_at) / Fold change /veh ID3 (11757404_x_at) / RFU PLEKHG5 (11737974_s_at) / Fold change /veh PLEKHG5 (11737974_s_at) / RFU LRRC4B (11730491_at) / Fold change /veh LRRC4B (11730491_at) / RFU GIMAP4 (11747438_a_at) / Fold change /veh GIMAP4 (11747438_a_at) / RFU KRT8 (11758183_x_at) / Fold change /veh KRT8 (11758183_x_at) / RFU CNN1 (11734310_a_at) / Fold change /veh CNN1 (11734310_a_at) / RFU VPS37D (11726825_at) / Fold change /veh VPS37D (11726825_at) / RFU C10orf10 (11716522_x_at) / Fold change /veh C10orf10 (11716522_x_at) / RFU KIR2DL2 /// KIR2DL4 /// KIR2DL5A /// KIR2DL5B /// KIR2DS1 /// KIR2DS2 /// KIR2DS3 /// KIR2DS4 /// KIR3DL3 /// KIR3DL3 /// KIR3DS1 (11738374_at) / Fold change /veh KIR2DL2 /// KIR2DL4 /// KIR2DL5A /// KIR2DL5B /// KIR2DS1 /// KIR2DS2 /// KIR2DS3 /// KIR2DS4 /// KIR3DL3 /// KIR3DL3 /// KIR3DS1 (11738374_at) / RFU C1QL1 (11718748_at) / Fold change /veh C1QL1 (11718748_at) / RFU TMPRSS4 (11747572_a_at) / Fold change /veh TMPRSS4 (11747572_a_at) / RFU HAMP (11756126_x_at) / Fold change /veh HAMP (11756126_x_at) / RFU RNFT2 (11725882_a_at) / Fold change /veh RNFT2 (11725882_a_at) / RFU NR4A2 (11747474_a_at) / Fold change /veh NR4A2 (11747474_a_at) / RFU ABCC12 (11746883_a_at) / Fold change /veh ABCC12 (11746883_a_at) / RFU TMEM136 (11760407_x_at) / Fold change /veh TMEM136 (11760407_x_at) / RFU CLDN22 /// WWC2 (11732394_at) / Fold change /veh CLDN22 /// WWC2 (11732394_at) / RFU HLA-DPB1 (11760878_x_at) / Fold change /veh HLA-DPB1 (11760878_x_at) / RFU SPINT1 (11716480_a_at) / Fold change /veh SPINT1 (11716480_a_at) / RFU GAP43 (11754022_s_at) / Fold change /veh GAP43 (11754022_s_at) / RFU A4GNT (11735810_at) / Fold change /veh A4GNT (11735810_at) / RFU PRB3 (11715151_x_at) / Fold change /veh PRB3 (11715151_x_at) / RFU TUBB4B (11761932_at) / Fold change /veh TUBB4B (11761932_at) / RFU CAPN14 (11732068_a_at) / Fold change /veh CAPN14 (11732068_a_at) / RFU TMCC2 (11721928_a_at) / Fold change /veh TMCC2 (11721928_a_at) / RFU IRGQ (11745062_a_at) / Fold change /veh IRGQ (11745062_a_at) / RFU FAM174B (11720279_a_at) / Fold change /veh FAM174B (11720279_a_at) / RFU TMPRSS4 (11748680_a_at) / Fold change /veh TMPRSS4 (11748680_a_at) / RFU FAM212B (11763350_a_at) / Fold change /veh FAM212B (11763350_a_at) / RFU PLEKHG5 (11743358_a_at) / Fold change /veh PLEKHG5 (11743358_a_at) / RFU ZSCAN30 (11745921_a_at) / Fold change /veh ZSCAN30 (11745921_a_at) / RFU CMKLR1 (11741424_a_at) / Fold change /veh CMKLR1 (11741424_a_at) / RFU LOC101060620 /// MAPK8IP1 (11723275_at) / Fold change /veh LOC101060620 /// MAPK8IP1 (11723275_at) / RFU SPTSSB (11747773_x_at) / Fold change /veh SPTSSB (11747773_x_at) / RFU PRSS12 (11739890_at) / Fold change /veh PRSS12 (11739890_at) / RFU BIN1 (11741810_x_at) / Fold change /veh BIN1 (11741810_x_at) / RFU WNT11 (11732464_a_at) / Fold change /veh WNT11 (11732464_a_at) / RFU C10orf10 (11716521_a_at) / Fold change /veh C10orf10 (11716521_a_at) / RFU C5orf56 (11738089_at) / Fold change /veh C5orf56 (11738089_at) / RFU CYB561 (11721691_x_at) / Fold change /veh CYB561 (11721691_x_at) / RFU ANKRD19P (11752326_a_at) / Fold change /veh ANKRD19P (11752326_a_at) / RFU OR2T12 /// OR2T33 /// OR2T8 (11738714_s_at) / Fold change /veh OR2T12 /// OR2T33 /// OR2T8 (11738714_s_at) / RFU VCAN (11748164_a_at) / Fold change /veh VCAN (11748164_a_at) / RFU JSRP1 (11732532_at) / Fold change /veh JSRP1 (11732532_at) / RFU KRTAP10-11 (11738290_x_at) / Fold change /veh KRTAP10-11 (11738290_x_at) / RFU MYO3A (11730013_a_at) / Fold change /veh MYO3A (11730013_a_at) / RFU EBF3 (11725865_a_at) / Fold change /veh EBF3 (11725865_a_at) / RFU CAMK2N1 (11719241_x_at) / Fold change /veh CAMK2N1 (11719241_x_at) / RFU C5orf56 (11738088_a_at) / Fold change /veh C5orf56 (11738088_a_at) / RFU OLFML3 (11715873_a_at) / Fold change /veh OLFML3 (11715873_a_at) / RFU LOC100653217 /// NTM (11731650_a_at) / Fold change /veh LOC100653217 /// NTM (11731650_a_at) / RFU MAPK11 (11762145_a_at) / Fold change /veh MAPK11 (11762145_a_at) / RFU FIZ1 (11724087_x_at) / Fold change /veh FIZ1 (11724087_x_at) / RFU OASL (11726364_x_at) / Fold change /veh OASL (11726364_x_at) / RFU SOX15 (11748057_x_at) / Fold change /veh SOX15 (11748057_x_at) / RFU CD79A (11719716_a_at) / Fold change /veh CD79A (11719716_a_at) / RFU HIST1H1D (11736915_at) / Fold change /veh HIST1H1D (11736915_at) / RFU CASKIN2 (11723855_a_at) / Fold change /veh CASKIN2 (11723855_a_at) / RFU LOC730098 (11760151_x_at) / Fold change /veh LOC730098 (11760151_x_at) / RFU OR4N2 (11742367_at) / Fold change /veh OR4N2 (11742367_at) / RFU PRRT2 (11749266_a_at) / Fold change /veh PRRT2 (11749266_a_at) / RFU SNX32 (11753110_a_at) / Fold change /veh SNX32 (11753110_a_at) / RFU CDHR5 (11726645_a_at) / Fold change /veh CDHR5 (11726645_a_at) / RFU RCAN1 (11760418_a_at) / Fold change /veh RCAN1 (11760418_a_at) / RFU FAM167A (11723789_a_at) / Fold change /veh FAM167A (11723789_a_at) / RFU FAM26E (11764081_at) / Fold change /veh FAM26E (11764081_at) / RFU ISYNA1 (11749810_s_at) / Fold change /veh ISYNA1 (11749810_s_at) / RFU ACY1 (11761880_at) / Fold change /veh ACY1 (11761880_at) / RFU 11764098_at / Fold change /veh 11764098_at / RFU SAMD14 (11745864_x_at) / Fold change /veh SAMD14 (11745864_x_at) / RFU NPB (11741838_a_at) / Fold change /veh NPB (11741838_a_at) / RFU TMPRSS6 (11731388_a_at) / Fold change /veh TMPRSS6 (11731388_a_at) / RFU KRTAP10-2 (11738614_at) / Fold change /veh KRTAP10-2 (11738614_at) / RFU ARHGAP8 /// PRR5-ARHGAP8 (11727945_x_at) / Fold change /veh ARHGAP8 /// PRR5-ARHGAP8 (11727945_x_at) / RFU KRTAP5-7 /// NADSYN1 (11734609_at) / Fold change /veh KRTAP5-7 /// NADSYN1 (11734609_at) / RFU RASL12 (11751679_a_at) / Fold change /veh RASL12 (11751679_a_at) / RFU CDKN2B (11736163_a_at) / Fold change /veh CDKN2B (11736163_a_at) / RFU PRF1 (11729649_at) / Fold change /veh PRF1 (11729649_at) / RFU, ZNF638 /// ZNF638-IT1 / Fold change vs veh, ZNF638 /// ZNF638-IT1 / RFU, PANK3 / Fold change vs veh, PANK3 / RFU, SH3YL1 / Fold change vs veh, SH3YL1 / RFU, ZEB2 / Fold change vs veh, ZEB2 / RFU, NRIP1 / Fold change vs veh, NRIP1 / RFU, PTTG1IP / Fold change vs veh, PTTG1IP / RFU, CAPN2 / Fold change vs veh, CAPN2 / RFU, MED14 / Fold change vs veh, MED14 / RFU, SNORA58 / Fold change vs veh, SNORA58 / RFU, C1orf63 / Fold change vs veh, C1orf63 / RFU, LRRFIP1 / Fold change vs veh, LRRFIP1 / RFU, NDUFAF7 / Fold change vs veh, NDUFAF7 / RFU, SLC12A2 / Fold change vs veh, SLC12A2 / RFU, IBTK / Fold change vs veh, IBTK / RFU, ESF1 / Fold change vs veh, ESF1 / Fold change vs veh, TMEM50B / RFU, TAOK1 / Fold change vs veh, TAOK1 / RFU, ACBD3 / Fold change vs veh, ACBD3 / RFU, TMA16 / Fold change vs veh, TMA16 / RFU, RWDD3 / Fold change vs veh, RWDD3 / RFU, BCAT1 / Fold change vs veh, BCAT1 / RFU, EDEM3 / Fold change vs veh, EDEM3 / RFU, TMEM33 / Fold change vs veh, TMEM33 / RFU, WDR75 / Fold change vs veh, WDR75 / RFU, AHCTF1 / Fold change vs veh, AHCTF1 / RFU, TFRC / Fold change vs veh, TFRC / RFU, ZDHHC17 / Fold change vs veh, ZDHHC17 / RFU, NOM1 / Fold change vs veh, NOM1 / RFU, ARL8B / Fold change vs veh, ARL8B / RFU, ZBTB11 / Fold change vs veh, ZBTB11 / RFU, TAMM41 / Fold change vs veh, TAMM41 / RFU, KIAA1704 /// LOC100996395 / Fold change vs veh, KIAA1704 /// LOC100996395 / RFU, ING1 / Fold change vs veh, ING1 / RFU, TRMT61B / Fold change vs veh, TRMT61B / RFU, FUBP3 / Fold change vs veh, FUBP3 / RFU, TP53 / Fold change vs veh, TP53 / RFU, TNKS2 / Fold change vs veh, TNKS2 / RFU, ZFP14 / Fold change vs veh, ZFP14 / RFU, ACTR2 / Fold change vs veh, ACTR2 / RFU, PPP3R1 / Fold change vs veh, PPP3R1 / RFU, PIK3R1 / Fold change vs veh, PIK3R1 / RFU, HNRNPA1 / Fold change vs veh, HNRNPA1 / RFU, RNF170 / Fold change vs veh, RNF170 / RFU, ZNF28 / Fold change vs veh, ZNF28 / RFU, RNGTT / Fold change vs veh, RNGTT / RFU, OGT / Fold change vs veh, OGT / RFU, BRD1 / Fold change vs veh, BRD1 / RFU, MARS / Fold change vs veh, MARS / RFU, ZNF655 / Fold change vs veh, ZNF655 / RFU, FAHD1 / Fold change vs veh, FAHD1 / RFU, BDP1 / Fold change vs veh, BDP1 / RFU, LRRCC1 / Fold change vs veh, LRRCC1 / RFU, ARID1A / Fold change vs veh, ARID1A / RFU, ZNF146 / Fold change vs veh, ZNF146 / RFU, ZNF330 / Fold change vs veh, ZNF330 / RFU, GPN3 / Fold change vs veh, GPN3 / RFU, C9orf123 / Fold change vs veh, C9orf123 / RFU, N4BP2L2 / Fold change vs veh, N4BP2L2 / RFU, ARFIP1 / Fold change vs veh, ARFIP1 / RFU, FAM179B / Fold change vs veh, FAM179B / RFU, BCL10 / Fold change vs veh, BCL10 / RFU, UHRF1BP1L / Fold change vs veh, UHRF1BP1L / RFU, BET1 / Fold change vs veh, BET1 / RFU, CNOT2 / Fold change vs veh, CNOT2 / RFU, ZNF268 / Fold change vs veh, ZNF268 / Fold change vs veh, ZNF507 / RFU, DGCR2 / Fold change vs veh, DGCR2 / RFU, WDSUB1 / Fold change vs veh, WDSUB1 / Fold change vs veh, HSP90B1 /// MIR3652 / RFU, ADSS / Fold change vs veh, ADSS / RFU, GK / Fold change vs veh, GK / RFU, ZNF148 / Fold change vs veh, ZNF148 / RFU, TAF9 / Fold change vs veh, TAF9 / RFU, SLC1A5 / Fold change vs veh, SLC1A5 / RFU, SLMO2 / Fold change vs veh, SLMO2 / RFU, ABCC4 / Fold change vs veh, ABCC4 / RFU, LOC101060439 /// RAP1B / Fold change vs veh, LOC101060439 /// RAP1B / RFU, RFX7 / Fold change vs veh, RFX7 / RFU, GTPBP10 / Fold change vs veh, GTPBP10 / RFU, CNEP1R1 / Fold change vs veh, CNEP1R1 / RFU, BIVM-ERCC5 /// ERCC5 / Fold change vs veh, BIVM-ERCC5 /// ERCC5 / RFU, ILF3 / Fold change vs veh, ILF3 / RFU 11762660_at / Fold change /veh 11762660_at / RFU VCAN (11757783_s_at) / Fold change /veh VCAN (11757783_s_at) / RFU DDX43 (11728927_at) / Fold change /veh DDX43 (11728927_at) / RFU KRT8 (11758188_x_at) / Fold change /veh KRT8 (11758188_x_at) / RFU NKD1 (11759106_at) / Fold change /veh NKD1 (11759106_at) / RFU SRD5A1 (11742802_a_at) / Fold change /veh SRD5A1 (11742802_a_at) / RFU TPSAB1 /// TPSB2 (11721975_s_at) / Fold change /veh TPSAB1 /// TPSB2 (11721975_s_at) / RFU GSTM3 (11746129_a_at) / Fold change /veh GSTM3 (11746129_a_at) / RFU IL23R (11737362_x_at) / Fold change /veh IL23R (11737362_x_at) / RFU TMEM51 (11727254_a_at) / Fold change /veh TMEM51 (11727254_a_at) / RFU PIWIL2 (11732686_x_at) / Fold change /veh PIWIL2 (11732686_x_at) / RFU ORM1 (11744905_x_at) / Fold change /veh ORM1 (11744905_x_at) / RFU CCDC152 (11743942_at) / Fold change /veh CCDC152 (11743942_at) / RFU ECM1 (11717891_a_at) / Fold change /veh ECM1 (11717891_a_at) / RFU IL23R (11748794_a_at) / Fold change /veh IL23R (11748794_a_at) / RFU TNFAIP8L3 (11732012_x_at) / Fold change /veh TNFAIP8L3 (11732012_x_at) / RFU MBOAT4 (11741988_at) / Fold change /veh MBOAT4 (11741988_at) / RFU 11764193_at / Fold change /veh 11764193_at / RFU TMEM53 (11763286_at) / Fold change /veh TMEM53 (11763286_at) / RFU MAGEB2 (11727129_at) / Fold change /veh MAGEB2 (11727129_at) / RFU TMEM200A (11744735_a_at) / Fold change /veh TMEM200A (11744735_a_at) / RFU CCDC152 (11751479_a_at) / Fold change /veh CCDC152 (11751479_a_at) / RFU FAM211A (11726209_a_at) / Fold change /veh FAM211A (11726209_a_at) / RFU RGS16 (11746705_a_at) / Fold change /veh RGS16 (11746705_a_at) / RFU VCAN (11755009_s_at) / Fold change /veh VCAN (11755009_s_at) / RFU RHOB (11743442_s_at) / Fold change /veh RHOB (11743442_s_at) / RFU RGS16 (11720943_a_at) / Fold change /veh RGS16 (11720943_a_at) / RFU RGS16 (11720944_at) / Fold change /veh RGS16 (11720944_at) / RFU, VPS4B / Fold change vs veh, VPS4B / RFU, CREB1 / Fold change vs veh, CREB1 / RFU, DNAJC13 / Fold change vs veh, DNAJC13 / RFU, GNAQ / Fold change vs veh, GNAQ / RFU, CDK5R1 / Fold change vs veh, CDK5R1 / RFU, ZRANB3 / Fold change vs veh, ZRANB3 / RFU, CUL4A / Fold change vs veh, CUL4A / RFU, CCNY / Fold change vs veh, CCNY / RFU, UFL1 / Fold change vs veh, UFL1 / RFU, COG3 / Fold change vs veh, COG3 / RFU, DIAPH2 / Fold change vs veh, DIAPH2 / RFU, SKA2 / Fold change vs veh, SKA2 / RFU, AFF3 / Fold change vs veh, AFF3 / RFU, LMF1 / Fold change vs veh, LMF1 / RFU, IPO11 / Fold change vs veh, IPO11 / RFU, DFFB / Fold change vs veh, DFFB / RFU, FOXP1 / Fold change vs veh, FOXP1 / RFU, CARD8 / Fold change vs veh, CARD8 / RFU, STRN3 / Fold change vs veh, STRN3 / RFU, ADK / Fold change vs veh, ADK / RFU, RASSF2 / Fold change vs veh, RASSF2 / RFU, WIPF1 / Fold change vs veh, WIPF1 / RFU, LARP1B / Fold change vs veh, LARP1B / RFU, RASA1 / Fold change vs veh, RASA1 / RFU, RB1 / Fold change vs veh, RB1 / RFU, PPFIA1 / Fold change vs veh, PPFIA1 / RFU, MAT2A / Fold change vs veh, MAT2A / RFU, CCT5 / Fold change vs veh, CCT5 / RFU, WDR92 / Fold change vs veh, WDR92 / RFU, CUX1 / Fold change vs veh, CUX1 / RFU, TTC7A / Fold change vs veh, TTC7A / RFU, TMEM135 / Fold change vs veh, TMEM135 / RFU, DEPTOR / Fold change vs veh, DEPTOR / RFU, CPM / Fold change vs veh, CPM / RFU, DNAJB6 / Fold change vs veh, DNAJB6 / RFU, CACNA2D3 / Fold change vs veh, CACNA2D3 / RFU, DTX4 / Fold change vs veh, DTX4 / RFU, TFCP2 / Fold change vs veh, TFCP2 / RFU, GMCL1 /// GMCL1P1 / Fold change vs veh, GMCL1 /// GMCL1P1 / RFU, AEBP2 / Fold change vs veh, AEBP2 / RFU, SNHG1 /// SNORD22 /// SNORD25 /// SNORD26 /// SNORD27 /// SNORD28 /// SNORD29 /// SNORD31 / Fold change vs veh, SNHG1 /// SNORD22 /// SNORD25 /// SNORD26 /// SNORD27 /// SNORD28 /// SNORD29 /// SNORD31 / Fold change (Aza/veh), C12orf56 (ProbeSet 11735607_a_at) / Fold change (ACY-1035/veh), C12orf56 (ProbeSet 11735607_a_at) / Fold change (Aza/veh), FGFR1OP (ProbeSet 11751329_s_at) / Fold change (ACY-1035/veh), FGFR1OP (ProbeSet 11751329_s_at) / Fold change (Aza/veh), VPS36 (ProbeSet 11739960_a_at) / Fold change (ACY-1035/veh), VPS36 (ProbeSet 11739960_a_at) / RFU SYPL1 (11715823_x_at) / Fold change /veh SYPL1 (11715823_x_at) / RFU IGFBP7 (11715501_s_at) / Fold change /veh IGFBP7 (11715501_s_at) / RFU REEP3 (11722064_at) / Fold change /veh REEP3 (11722064_at) / RFU IGLL1 (11728026_x_at) / Fold change /veh IGLL1 (11728026_x_at): dose or concentration left out as unconfirmed
Settings: MV-4-11 cells, 48 hours

Nc1ccc(-c2cccs2)cc1NC(=O)c1ccc2c(c1)cc(C1CC1)n2CCN1CCOCC1 [ACY-1035]
RFU CYB561 (11721691_x_at): 11.94 RFU
